Consider two molecules from ChEMBL document CHEMBL1938259, “Novel substituted pyrimidines as HCV replication (replicase) inhibitors” (Bioorg Med Chem Lett, 2012).

Broadly, the AUC is concentration integrated over time.

In one data set the test system is Rattus norvegicus. In words: AUC (0 to 24 hrs) in rat at 10 mg/kg, po and 2 mg/kg, iv. It counts as ADME, organism-based, Plasma. To be noted: in vivo.
For another data set, the system named is Canis familiaris. The data set can be described thus: AUC (0 to 24 hrs) in dog at 2 mg/kg, po. The data set is classed as ADME, organism-based, Canis lupus familiaris, Plasma. Further details: time < 24 hr, dose 2 mg/kg, route oral. To be noted: in vivo.

In the data set with Rattus norvegicus, `Nc1nc(Cl)c(C#Cc2nccs2)c(N[C@@H]2C[C@H](CO)[C@@H](O)[C@H]2O)n1` came in with an AUC of 0.6 µM·h. As to `Nc1nc(Cl)c(C#Cc2ccsc2)c(N[C@@H]2C[C@H](CO)[C@@H](O)[C@H]2O)n1`, the AUC with Rattus norvegicus was 1.6 µM·h; in the data set with Canis familiaris, 2.2 µM·h.
